# Results reported in patent publication US12246022B2, “Compositions and methods for treating, preventing or reversing age associated inflammation and disorders” (BROWN UNIVERSITY, priority 2019, dated 2025).
# Where two headings read alike, the source gives them in different places.
# Experiments:
# L1HS sequences = assay: L1 sequence abundance (copy number) by TaqMan qPCR in senescent fibroblasts; type: cell-based, human; conditions: LF1, IMR90, W138 fibroblasts, 5 μM in medium, 4 months in senescence
# Description: The ABI ViiA 7 instrument (Applied Biosystems) was used for all experiments. qPCR of DNA was performed using the TaqMan system (Applied Biosystems) as described by Coufal et al. (2009).^64 […] of purified genomic DNA was used with the indicated primers (see Table 1). Reverse transcription qPCR (RT-qPCR) of RNA was performed using the SYBR Green system (Applied Biosystems). Polyadenylated RNA was used in all experiments assessing transcription of L1 elements, and total RNA was used for all other genes. Total RNA was harvested using the Trizol reagent (Invitrogen). Poly(A) RNA was isolated from total RNA using the NEBNext Poly(A) mRNA Magnetic Isolation Module (New England Biolabs). […] Effectiveness of the DNase digestion was assessed using controls that omitted the RT enzyme.
# Primer sets 1 to 5 (Table 1, amplicons A to E in FIG. 1B) to human L1 were designed to preferentially amplify elements of the human-specific L1 HS and evolutionarily recent primate-specific L1 PA(2-6) subfamilies, as follows. […] Sequences of primers corresponding to a consensus of all the murine IFN alpha family genes, as well as to the IFNB1 gene, were obtained from the publication by Gautier et al.^71 For quantifying relative L1 genomic copy number (human cells), the TaqMan multiplex method developed by Coufal et al. (2009)^72 was used. […]
# SASP response = assay: Senescence entry and SASP gene expression in human fibroblasts (RT-qPCR); type: cell-based; conditions: LF1, 5 μM
# Source text: (§1) To obtain replicatively senescent (RS) cells, LF1 cultures were serially propagated until proliferation ceased. At each passage, after reaching 80% confluence cells were trypsinized and diluted 1:4. […] In early passage cultures, the time between passages is constant at approximately 3 days. […] At this point, after reaching 80% confluence, the cells were replated at 1:2 dilution, and this time was designated as the last passage (point A in FIG. 2A). […] Under this experimental regimen, the majority of the cells in the culture enter senescence within a 3-4 weeks window centered roughly around the time of last passage (grey bar in FIG. 2A). At point B (4 weeks), the cultures were trypsinized and replated as described^60 to eliminate a small fraction of persisting contact-inhibited cells. Cultures were again replated at point C (8 weeks).
# The ABI ViiA 7 instrument (Applied Biosystems) was used for all experiments. qPCR of DNA was performed using the TaqMan system (Applied Biosystems) as described by Coufal et al. (2009).^64 […] of purified genomic DNA was used with the indicated primers (see Table 1). Reverse transcription qPCR (RT-qPCR) of RNA was performed using the SYBR Green system (Applied Biosystems). […] Effectiveness of the DNase digestion was assessed using controls that omitted the RT enzyme.
# IFN-I response = IFN-I response in senescent and 3X human fibroblasts (RT-qPCR, ELISA, immunoblotting); type: cell-based; conditions: LF1 and IMR90, 5 μM
# Source text: as §1
# Oncogene-induced senescence (OIS) was elicited by infecting proliferating LF1 cells with pLenti CMV RasV12 Neo (Addgene plasmid #22259). Generation of lentiviral particles and the infection procedure are described below. At the end of the infection, cells were reseeded at 15-20% confluency and selected with G418 (250 μg/ml) maintained continuously until the end of the experiment Medium was changed every 3 days until the cultures were harvested at the indicated time points. Stress-induced premature senescence (SIPS) was elicited by […] irradiation with 20 Gy given at a rate of 87 cGy/min in one fraction using a cesium-137 gamma source (Nordion Gammacell 40). Cells were 15-20% confluent at the time of irradiation. Medium was changed immediately after irradiation, and at 3-day intervals thereafter. […]
# The ABI ViiA 7 instrument (Applied Biosystems) was used for all experiments. qPCR of DNA was performed using the TaqMan system (Applied Biosystems) as described by Coufal et al. (2009).^64 […] of purified genomic DNA was used with the indicated primers (see Table 1). […] Effectiveness of the DNase digestion was assessed using controls that omitted the RT enzyme. […]
# human LINE-1 [1] = assay: Human LINE-1 retrotransposition assay, related experiments with islatravir (pYX017, HeLa cells, Tables 12 and 13); type: cell-based; conditions: for IC50: Homo sapiens
# Description: In related experiments, islatravir and other compounds were tested for inhibition of retrotransposition activity of human LINE-1 in HeLa cells according to the following procedure.
# HeLa cervical cancer cells were cultivated at 37° C. in a humidified 5% CO2 incubator in Dulbecco's Modified Eagle's Medium (DMEM)—high glucose, with 4500 mg/L glucose, L-glutamine, sodium pyruvate and sodium bicarbonate (Sigma), supplemented with 10% of heat inactivated fetal bovine serum (Thermo Fisher).
# Assays were performed using reporter plasmid pYX017 as described (Xie, et al., 2011) with several modifications. The reporter assay was performed in 96-well white optical bottom plates. HeLa cells were seeded in wells 24 h prior to transfection and compound treatment so that cells were approximately 30% confluent on the day of transfection. Different cell plating densities were tested and a density of 2×10^3 cells was determined to be optimal.
# Compounds were resuspended in DMSO. Serial dilutions (1:3) were prepared in DMSO. Medium containing different concentrations of the compounds were prepared by adding 2 μl of the compound dilution to 1 ml of the culture medium. The final concentration of DMSO in the medium was 0.2%.
# FuGENE® HD transfection reagent (Promega, E2311, Lot 382574 and Lot 397842) was used to transfect the plasmids into the cells. The transfection reagent: DNA mixture was prepared in OpiMEM (Thermo Fisher) according to manufacturer's instructions. Different ratios of transfection reagent to DNA were tested and a ratio of 3:1 was determined to be optimal. Culture medium was removed from the cells and discarded. The transfection reagent: DNA mixture (5 μl) was mixed with the compound containing medium (100 μl/well) and this was added onto the cells of each well. Cells were incubated at 37° C./5% CO2 for different incubation time. A 72 h incubation time was determined to be optimal.
# Luciferase reporter activity was quantified with the Dual-Luciferase® Reporter Assay System (Promega) according to manufacturer's instructions for multiwell plates except that cells were lysed directly on the multiwell plate with 30 μl of the passive lysis buffer (PLB) for 20 min at room temperature, with gentle shaking to ensure complete cell lysis.
# Firefly and Renilla luciferase signals were measured using a SpectraMax i3x Multi-Mode Microplate Reader. Integration times of 100 ms and 10 ms were used to measure the Firefly and Renilla signals respectively. Relative L1 activity is calculated as Firefly/Renilla *1000 or Firefly/Renilla *10,000. Dose response inhibition data were fit to a four parameter logistic equation using non-linear regression (using Graphpad Prism 8), to determine IC50 values for each inhibitor.
# human LINE-1 [2] = assay: Islatravir Inhibitory Quotient (IQ) estimate for human LINE-1 in PBMC and brain; conditions: for Human LINE-1 IQ C168 hr, PBMC, single dose / Human LINE-1 IQ Cavg (ss), PBMC, q.d.: EFdA-TP EC50 = 316 nM; for Human LINE-1 IQ C168 hr, Brain, single dose / Human LINE-1 IQ Cavg (ss), Brain, q.d.: assume Br./plasma = 0.25
# [3] = human plasma PK, oral dose 0.5-30 mg; cited from earlier work
# [4] = cited from earlier work
# [5] = Table 13 Comparative Studies; cited from earlier work
# HIV WT = conditions: Grobler et al. 2019; read-out: HIV WT IC50; cited from earlier work
# [6] = daily dose of 2 mg, steady state
compound,measurement,setting,value
Nc1ncnc2c1ncn2CCOCP(=O)(O)O [Adefovir],senescence-induced increase of L1 copy number,L1HS sequences,significantly prevented this increase
same,"SASP gene expression (IL-6, MMP3) in senescent cells",SASP response,significantly decreased
same,"interferon gene expression (IFN-α, IFN-β1) in senescent cells",IFN-I response,significantly reduced
"C#C[C@]1(CO)O[C@@H](n2cnc3c(N)nc(F)nc32)C[C@@H]1O [Islatravir, 2′-deoxy-4′-ethynyl-2-fluoroadenosine]",human LINE-1 inhibitor activity compared to the other reverse transcriptase inhibitory drugs tested,human LINE-1 [1]; HeLa cells,unexpectedly better human LINE-1 inhibitor activity
same,IC50,"human LINE-1 [1]; HeLa, Table 13 Comparative Studies, read-out: Human Line-1 IC50",5 nM
same,IC50,"human LINE-1 [1]; HeLa, see Table 12, read-out: in vitro IC50 for human LINE-1 in cell-based assay",1.29 nM
same,IC50,"human LINE-1 [1]; HeLa cells, pYX017, 72 h, n = 3, read-out: Human LINE-1 IC50, Average",1.29 nM
same,IC50,"human LINE-1 [1]; HeLa cells, pYX017, 72 h, read-out: Human LINE-1 IC50, Exp. 3",1.4 nM
same,IC50,"human LINE-1 [1]; HeLa cells, pYX017, 72 h, read-out: Human LINE-1 IC50, Exp.2",1.18 nM
same,"Human LINE-1 IQ C168 hr, PBMC, single dose",human LINE-1 [2]; Dose 0.5 mg,1.84
same,"Human LINE-1 IQ Cavg (ss), PBMC, q.d.",human LINE-1 [2]; Dose 0.5 mg,23.41
same,"Human LINE-1 IQ C168 hr, Brain, single dose",human LINE-1 [2]; Dose 0.5 mg,0.46
same,"Human LINE-1 IQ Cavg (ss), Brain, q.d.",human LINE-1 [2]; Dose 0.5 mg,5.85
same,"Human LINE-1 IQ C168 hr, PBMC, single dose",human LINE-1 [2]; Dose 1 mg,2.61
same,"Human LINE-1 IQ Cavg (ss), PBMC, q.d.",human LINE-1 [2]; Dose 1 mg,39.79
same,"Human LINE-1 IQ C168 hr, Brain, single dose",human LINE-1 [2]; Dose 1 mg,0.66
same,"Human LINE-1 IQ Cavg (ss), Brain, q.d.",human LINE-1 [2]; Dose 1 mg,9.95
same,"Human LINE-1 IQ C168 hr, PBMC, single dose",human LINE-1 [2]; Dose 2 mg,3.00
same,"Human LINE-1 IQ Cavg (ss), PBMC, q.d.",human LINE-1 [2]; Dose 2 mg,50.54
same,"Human LINE-1 IQ C168 hr, Brain, single dose",human LINE-1 [2]; Dose 2 mg,0.75
same,"Human LINE-1 IQ Cavg (ss), Brain, q.d.",human LINE-1 [2]; Dose 2 mg,12.64
same,"Human LINE-1 IQ C168 hr, PBMC, single dose",human LINE-1 [2]; Dose 10 mg,15.64
same,"Human LINE-1 IQ Cavg (ss), PBMC, q.d.",human LINE-1 [2]; Dose 10 mg,295.15
same,"Human LINE-1 IQ C168 hr, Brain, single dose",human LINE-1 [2]; Dose 10 mg,3.92
same,"Human LINE-1 IQ Cavg (ss), Brain, q.d.",human LINE-1 [2]; Dose 10 mg,73.79
same,"Human LINE-1 IQ C168 hr, PBMC, single dose",human LINE-1 [2]; Dose 30 mg,76.88
same,"Human LINE-1 IQ Cavg (ss), PBMC, q.d.",human LINE-1 [2]; Dose 30 mg,915.31
same,"Human LINE-1 IQ C168 hr, Brain, single dose",human LINE-1 [2]; Dose 30 mg,19.22
same,"Human LINE-1 IQ Cavg (ss), Brain, q.d.",human LINE-1 [2]; Dose 30 mg,228.83
same,IQ for human LINE-1 in PBMCs,human LINE-1 [2]; [6],51
same,IQ for human LINE-1 in brain,human LINE-1 [2]; [6],13
same,oral clearance,[3],31 to 45 L/h
same,Plasma-Brain Kapp,[4]; non-human primate,0.25
same,blood brain barrier penetration,"[4]; single oral doses, Rhesus macaque",penetrated the blood brain barrier (BBB)
same,huCSF/Plasma,[5],0.25
same,IC50,HIV WT,0.2 nM
